Experimental data from US20220008355A1, “USE OF CAN[…] THE TREATMENT OF EPILEPSY” (GW Research Limited, priority 2018, published 2022).

Columns and labels:
Dravet syndrome = conditions: Phase 3, Dravet syndrome; cited from earlier work
[1] = system: secondary generalized epilepsy; conditions: of eight adult patients; cited from earlier work
seizures [2] = conditions: of four adult patients; 200 mg/day; cited from earlier work
[3] = system: epilepsy associated with GRIN2A mutation; test: Expanded access compassionate use case study of a child with GRIN2A mutation refractory epilepsy; assay type: in vivo, human
Method: Example 1 describes a case study of a child with a GRIN2A mutation that was provided highly purified cannabidiol as part of an expanded access treatment program of children with refractory epilepsy.
A child was enrolled in an expanded access compassionate use program for CBD. This subject was treated with a highly purified extract of cannabidiol (CBD) obtained from a cannabis plant. Frequency of seizures was recorded at each visit, as were reported quality of life changes, including mood, behaviour, and cognitive function.
The patient first presented with seizures. They experienced status epilepticus with myoclonic jerks and atypical absence seizures which lasted between 30 seconds to 15 minutes.
The patient had tried and failed 10 different anti-epileptic drugs, the ketogenic diet, vitamin B6 and vagus nerve stimulation however their seizures remained refractory.
Treatment with a highly purified CBD extract (greater than 98% CBD w/w) in sesame oil, of known and constant composition, at a dose of 5 mg/kg/day in addition to their baseline anti-epileptic drug (AED) regimen was commenced in September 2014 and has been ongoing for four years.
Laboratory testing for hematologic, liver, kidney function and concomitant AED levels was performed at baseline, and after every 4 weeks of CBD therapy.

[4] = Solubility of the drug substance in water; assay type: physicochemical
Source text: The drug substance, CBD is insoluble in water. Sesame oil was selected as an excipient to solubilize the drug substance.

seizures [5] = conditions: twelve institutionalized adult patients; 200 mg/day; cited from earlier work
[6] = system: seizures after administration of pro-convulsant drugs or an electric current; conditions: mice; cited from earlier work
seizures [7] = conditions: rabbit, in vivo; cited from earlier work

SMILES | Study outcome (Dravet syndrome) | Number of patients with marked reduction of seizures [1] | Number of patients who became seizure free (seizures [2]) | Concomitant anti-epileptic drugs after treatment ([3]; after CBD treatment) | Cognitive function ([3]; after CBD treatment, patient now attends regular school and sports activities) | Seizure status since the start of treatment ([3]; one patient, CBD 5 up to 25 mg/kg/day added to baseline AEDs, four years of treatment) | EEG: posterior dominate rhythm, alpha activity ([3]; repeat EEG after treatment with CBD (FIG. 2)) [Hz] | EEG: epileptiform discharges ([3]; repeat EEG after treatment with CBD (FIG. 2), left frontal head region) | EEG: electrical status epilepticus during sleep ([3]; repeat EEG after treatment with CBD (FIG. 2), present at baseline) | Solubility in water [4] | Control of seizures (seizures [5]) | Prevention of seizures [6] | Convulsant liability (seizures [7])
C=C(C)[C@@H]1CCC(C)=C[C@H]1c1c(O)cc(CCCCC)cc1O [CBD, Cannabidiol] | positive results | 4 | two | All AEDs have been stopped with the exception of clobazam and the VNS | significantly improved | seizure free | 9 | rare | no electrical status epilepticus during sleep | insoluble | ineffective | able to prevent seizures | –
CCCCCc1cc(O)c2c(c1)OC(C)(C)[C@@H]1CCC(C)=C[C@@H]21 [THC, Tetrahydrocannabinol] | – | – | – | – | – | – | – | – | – | – | – | – | pro-convulsant
